For orientation: IC50 means the concentration at which inhibition is half-maximal. The term inhibition denotes the change of the read-out against control, counted positive when it falls.

Entries after “also recorded” stand apart in the source; their conditions may differ. Where two headings read alike, the source gives them in different places.

Here are results for three compounds from patent US9242944B2 (UNIVERSITY OF MARYLAND, BALTIMORE, priority 2013, dated 2016).

The target in one experiment is T1, c-Myc-Max heterodimers (Homo sapiens, UniProt P01106).
T1 construct: c-Myc bHLH-ZIP domain (residues 353-437); His6-TEV protease substrate tag; made in house; host or cells: bacteria (pET151 vector for Myc)
The experiment is described as follows: Electrophoretic mobility shift assay (EMSA) of c-Myc-Max dimerization and DNA binding. Here is the method:
The ability of a small-molecule to interfere with c-Myc-Max dimerization is conveniently assessed through the disruption of the c-Myc-Max/DNA ternary complex by an electrophoretic mobility shift assay (EMSA) using fluorescently-labelled DNA, and subsequently quantified by densitometry.(23) Accordingly, a 100-member library was screened for the ability to disrupt the c-Myc-Max dimer.
These were performed essentially as described previously (23). Briefly, Ni^+-agarose-purified His6-tagged c-Myc bHLH-ZIP domain (residues 353-437) was used for all binding assays as was the His6-tagged 151 residue isoform of Max, otherwise referred to as Max(S) (residues 2-151) (21). For each binding reaction, the proteins were allowed to heterodimerize at a concentration of 30 nM each in the presence of 20 nM of a 5′-HEX-tagged double-stranded 22-base pair oligonucleotide 5′-hexachlorofluoresceine-[…]-3′ (SEQ ID NO: 1) containing a consensus c-Myc binding site (CACGTG) and the indicated concentration of small molecule inhibitor. Control reactions contained the same oligonucleotide in the presence of 60 nM of the 160 residue isoform of Max referred to as Max(L) (21). All binding reactions were prepared in a buffer consisting of PBS (pH 7.3), 1 mmol/L EDTA, 0.1% NP40, 5% glycerol, 1 mmol/L DTT, and 0.4 mg/mL bovine serum albumin. Electrophoresis was performed on 8% polyacrylamide/bisacrylamide (80:1) gels in […] (23). Each reaction was run on at least three separate occasions.
EMSAs were performed essentially as described utilizing bacterially-expressed recombinant proteins purified nearly to homogeneity.(23) Experiments with Max homodimers used the His6-tagged 160 amino acid isoform of the protein, termed Max(L), which homodimerizes and binds DNA well. For studies with Myc-Max heterodimers, the His6-tagged 151 residue isoform of Max [Max(S)] was used, which binds DNA well as a heterodimer with Myc but poorly as a homodimer.(23) Recombinant Myc protein, expressed in the pET151 vector, consisted of the His6-TEV protease substrate-tagged 85 amino acid bHLH-ZIP domain. (23) Each protein was purified by Ni-agarose affinity chromatography as previously described. (23) The His6-TEV tag was removed from the Myc protein by TEV protease cleavage followed by re-purification using Ni-agarose affinity chromatography to remove the His6-TEV protease and the cleaved His6-TEV tag as previously described. Binding assays were performed with 30 nM of each protein and 30 nM of a 6-carboxy-2′,4,4′,5′,7,7′-hexachlorofluorescein (HEX)-tagged double-stranded oligonucleotide containing a consensus Myc binding site (IDT, Coralville, Iowa).(23)
On the technique in general: In EMSA bound probe runs differently from free probe, usually more slowly.

Another experiment addresses T2, Max-Max homodimers (Homo sapiens, UniProt P61244).
T2 construct: His6; made in house; host or cells: bacteria
The experiment is described as follows: EMSA of Max-Max homodimerization and DNA binding. The settings on record: 50% inhibition of Max-Max dimerization and DNA binding in EMSAs.

Experiment [1] concerns HL60 cells. Description: Growth inhibition (MTT assay) in HL60 cells. The following applies: 10-point serial dilution, quadruplicate; for IC50: read-out: IC50 HL60. The class given is cell-based, human. Here is the method:
(§1) These were performed using HL60 human promyelocytic leukemia cells or Daudi Burkitt lymphoma cells essentially as described previously (23). Briefly, cells were seeded into 96 well dishes (5000 cells/well and 10,000 cells/well for HL60 and Daudi cells, respectively). Growth medium consisted of RPMI medium supplemented with Penicillin/Streptomycin, glutamine and 10% fetal bovine serum. The indicated concentrations of each compound were then added and 10-point growth inhibition assays were performed 3-5 days later using the MTT assay. Each point was performed in quadruplicate.
(§2) Daudi Burkitt lymphoma and HL60 promyelocytic leukemia cells were maintained in RPMI medium supplemented with 10% fetal bovine serum.(23) For growth inhibition studies, 3×10^3 cells were seeded in 96 well plates in the presence of serial dilutions of each compound. A total of 10 dilutions, ranging from 0.1 to 50 μM were performed for each compound. Standard MTT assays (23) were used to quantify cell number 3-4 days later and compared to wells exposed to DMSO vehicle only.

The next experiment has as its system Daudi cells. The experiment is described as follows: Growth inhibition (MTT assay) in Daudi cells. Format: cell-based. The following applies: 10-point serial dilution, quadruplicate; for IC50: read-out: IC50 Daudi. Here is the method:
as §1, §2

A further experiment deals with T3, c-Myc-Max dimerization (Homo sapiens, UniProt P01106).
T3 construct: endogenous in cells; host or cells: HL60
Description: Co-immunoprecipitation (Co-IP) of c-Myc with Max in HL60 cells. Format: cell-based. Here is the method:
Co-IP assays were performed essentially as described previously.(23) Briefly, 5×10^6 HL60 cells (>90% viable) in log-phase growth were treated in suspension for 4-6 h with the stated concentration of 3jc48-3. As a negative control, samples exposed to DMSO vehicle only were included and processed in parallel. Treated cells were collected by centrifugation, washed twice in ice-cold PBS and lysed in IP Buffer. 300 μg of cleared lysate was then precipitated with a 1:200 dilution of anti-Max antibody(23) followed by subsequent precipitation with protein G-Sepharose using conditions recommended by the supplier (Santa Cruz Biotechnology, Inc. Santa Cruz, Calif.). The precipitate was washed three times in IP buffer, boiled in running buffer and resolved by 10% SDS-PAGE. After electrotransfer of the proteins to a PVDF membrane (Millipore Corp. Billercica, Mass.), the blot was probed with a 1:1000 dilution of anti-Myc monoclonal antibody (9E10, Santa Cruz Biotechnology, Santa Cruz, Calif.). Blots were developed using a Pierce ECL Plus enhanced chemiluminescence kit according to the directions of the supplier (Thermo-Fisher, Pittsburgh, Pa.).

Experiment [2] has as its system HL60 cells. The experiment is described as follows: Cell cycle analysis (propidium iodide, flow cytometry). Format: cell-based. The following applies: 24 h. Here is the method:
Sub-confluent cultures of cells at >90% viability were plated into fresh medium at densities that were typically about 10% of those attained at the point of density arrest. The next day, Myc inhibitors at the stated concentrations were added for 24-48 hr. The cells were then harvested, washed twice in PBS and stained with propidium iodide as previously described(23). Cell cycle analyses were performed on a BD FACSCalibur™ flow cytometer (Becton Dickinson, Inc. Franklin Lakes, N.J.) and analyzed using ModFit LT 3.3 (Verity Software House, Topsham, Me.).

Experiment [3] has as its system c-Myc-responsive promoter. The experiment is described as follows: Myc reporter gene expression (luciferase) in HeLa cells. Format: cell-based. The settings on record: markedly diminished within 6 h of compound addition. From the text:
The generic reporter vector pGL4.28(luc2CP/minP/Hygro) (Promega Corp., Madison Wis.), which is specifically designed to reduce anomalous transcription and which contains a highly de-stabilized luciferase reporter was used to assess the effects of Myc inhibitors. […] A control vector containing this same oligonucleotide with mutant E-box sites ([NT] ID NO: 3) was used as a negative control. […] After automated DNA sequencing to confirm the identity of its respective insert, each vector was then separately co-transfected into HeLa cells together with the vector pFR400, which encodes a mutant form of dihydrofolate reductase that facilitates the step-wise amplification of the plasmid and any co-transfected sequences in the presence of increasing concentrations of the folate antagonist methotrexate (MTX). After first selecting for stably transfected cells by growth in hygromycin, the resistant clones were pooled and grown in serial four-fold increasing concentrations of MTX ranging from […]), thus allowing the luciferase signal originating from the first vector to be easily detected above background. No luciferase signal over background values could be obtained in unamplified cells or in amplified cells transfected with the mutant E-box-containing vector. […]
For orientation: A reporter such as luciferase makes a cellular process visible.

T1 sequence (P01106 368-452, one chain of several): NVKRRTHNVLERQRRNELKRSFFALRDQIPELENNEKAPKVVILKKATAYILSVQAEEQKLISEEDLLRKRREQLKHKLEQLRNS
T3 sequence (P01106 16-454 limits assumed): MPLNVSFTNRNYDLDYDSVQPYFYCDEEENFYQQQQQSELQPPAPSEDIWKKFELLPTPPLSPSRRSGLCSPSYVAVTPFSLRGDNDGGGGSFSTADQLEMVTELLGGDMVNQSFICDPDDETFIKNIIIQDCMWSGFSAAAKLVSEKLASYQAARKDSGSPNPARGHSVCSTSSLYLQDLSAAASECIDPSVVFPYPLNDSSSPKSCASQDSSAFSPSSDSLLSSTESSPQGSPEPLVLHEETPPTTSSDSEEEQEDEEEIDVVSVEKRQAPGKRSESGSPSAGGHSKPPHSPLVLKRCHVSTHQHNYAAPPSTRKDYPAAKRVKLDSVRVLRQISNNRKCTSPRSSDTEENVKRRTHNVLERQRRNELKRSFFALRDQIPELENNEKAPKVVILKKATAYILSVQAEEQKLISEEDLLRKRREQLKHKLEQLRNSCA
T2 sequence (P61244 whole entry): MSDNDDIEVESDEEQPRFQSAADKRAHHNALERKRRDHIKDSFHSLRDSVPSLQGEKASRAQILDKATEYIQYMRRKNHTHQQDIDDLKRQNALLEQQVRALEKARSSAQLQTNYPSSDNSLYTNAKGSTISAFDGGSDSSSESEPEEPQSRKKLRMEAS

With `COC(=O)c1ccc(Nc2ccc([N+](=O)[O-])c3nonc23)c(-c2ccc(C)cc2)c1` [Compound 3jc48-3, Methyl 4′-methyl-6-((7-nitrobenzo[c][1,2,5]oxadiazol-4-yl)amino)-[1,1′-biphenyl]-3-carboxylate], the IC50 at c-Myc-Max heterodimers (50% inhibition of c-Myc-Max dimerization and DNA binding in EMSAs) was 34.8 µM; at Max-Max homodimers, 60.6 µM; with HL60 cells [1] (Homo sapiens, HL-60, MTT assay), 3.8 µM; in the experiment with HL60 cells [1] (MTT assay), 3.5 ± 0.54 µM; with Daudi cells it was 1.28 ± 0.73 µM; in the experiment on Daudi cells (Homo sapiens, Daudi), 1.3 µM. In addition, the “c-Myc-Max inhibitory potency relative to 10074-G5” value at c-Myc-Max heterodimers (EMSA) is recorded as “approximately five-fold improvement”. Also, on c-Myc-Max heterodimers (EMSA), the “selectivity for Myc-Max heterodimers over Max-Max homodimers” value is reported as “about two-fold selective; also recorded: two-fold selectivity”. In addition, the inhibition at 100 µM on c-Myc-Max heterodimers (Table 10, 100 μM small-molecule, EMSA, read-out: % Inhibition of c-Myc-Max Dimerization) came to 94%. The “IC50 HL60” value with HL60 cells [1] (MTT assay) is reported as “single-digit micromolar”. Moreover, the “IC50 Daudi” value in the experiment on Daudi cells was “single-digit micromolar”. The “disruption of c-Myc-Max dimerization in cells (co-IP)” value (“disruption of c-Myc-Max dimerization” below) at c-Myc-Max dimerization is reported as “capable of disrupting c-Myc-Max dimerization within cells”. The “cell cycle arrest, cells in G0/G1” value in the experiment on HL60 cells [2] is “blocking progression of the cell cycle beyond the G0/G1 phase; also recorded: dose-dependently increased the percentage of HL60 cells in the G0/G1 stage”. In experiment [3], the “inhibition of luciferase reporter under c-Myc-responsive vs NF-κB-responsive promoter” value is “selectively inhibits the expression of the luciferase gene under the control of a c-Myc promoter; also recorded: selectively inhibited the c-Myc-driven gene”.
Consider `O=C(OCC(F)(F)F)c1ccc(Nc2ccc([N+](=O)[O-])c3nonc23)cc1` [Compound 3jc91-7, Trifluoroethyl 4-((7-nitrobenzo[c][1,2,5]oxadiazol-4-yl)amino)benzoate], for which, at c-Myc-Max dimerization, the “disruption of c-Myc-Max dimerization” value was “inhibit c-Myc-Max dimerization in cells”.
Turning to `O=C(Oc1ccccc1)c1ccc(Nc2ccc([N+](=O)[O-])c3nonc23)cc1` [SF-4-017, Phenyl 4-((7-nitrobenzo[c][1,2,5]oxadiazol-4-yl)amino)benzoate], the IC50 at c-Myc-Max heterodimers is 30 µM; at Max-Max homodimers, more than 50 µM; in the experiment with HL60 cells [1] (Homo sapiens, HL-60, MTT assay) it was 9.2 ± 0.78 µM; with Daudi cells (Homo sapiens, Daudi), 2.5 ± 0.05 µM. The “IC50 HL60” value in the experiment with HL60 cells [1] (MTT assay) is given as “single-digit micromolar”. Besides, in the experiment with Daudi cells, the “IC50 Daudi” value was “single-digit micromolar”. Also, the “disruption of c-Myc-Max dimerization” value at c-Myc-Max dimerization is on record as “inhibit c-Myc-Max dimerization in cells”.
